Measured values reported in PMC11162409, “Phenylalanine as an effective stabilizer and aggregation inhibitor of Bacillus amyloliquefaciens alpha-amylase” (AMB Express, 2024).

Biological target: Bacillus amyloliquefaciens alpha-amylase (BAA) (Bacillus amyloliquefaciens, UniProt P00692)
Assay: Bernfeld DNS assay of starch hydrolysis ([…] nm) with commercial enzyme
Assay type: biochemical

Chain of Bacillus amyloliquefaciens alpha-amylase (BAA) (P00692 32-514): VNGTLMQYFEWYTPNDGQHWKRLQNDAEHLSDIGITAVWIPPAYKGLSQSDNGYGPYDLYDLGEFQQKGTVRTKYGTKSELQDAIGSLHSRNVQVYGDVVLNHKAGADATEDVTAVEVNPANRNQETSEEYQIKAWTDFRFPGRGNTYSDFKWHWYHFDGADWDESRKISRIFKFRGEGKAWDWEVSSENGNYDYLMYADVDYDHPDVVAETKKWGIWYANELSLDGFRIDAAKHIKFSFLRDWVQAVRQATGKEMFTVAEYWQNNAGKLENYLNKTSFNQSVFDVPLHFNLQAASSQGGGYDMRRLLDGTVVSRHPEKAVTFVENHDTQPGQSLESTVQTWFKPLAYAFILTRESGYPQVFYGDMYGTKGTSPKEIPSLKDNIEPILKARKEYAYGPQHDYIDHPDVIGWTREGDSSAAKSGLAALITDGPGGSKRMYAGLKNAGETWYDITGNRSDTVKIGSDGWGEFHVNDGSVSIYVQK

Work on `N[C@@H](Cc1ccc(O)cc1)C(=O)O` [Tyr, tyrosine] yielded an IC50 of roughly 100 mM.
